Assay results: patent US10632195B2, “Pharmaceutical device for electric-field assisted administration of Tapentadol and method of administering Tapentadol with same” (Gruenenthal GmbH, priority 2012, dated 2020)
“And” between values parts separate entries of the source, which are not always exact repeats. Equal values may be shown once. Where a name gives a salt, the structure may show the parent alone.

Assay: passive transdermal delivery of Tapentadol hydrochloride, 24 hours, no current (comparative example 1b, passive control)
Assay type: in vitro ADME, pig
Settings: for cumulative, passive delivery across the skin, Mean / cumulative, passive delivery across the skin, as tapentadol base, Mean / drug flux across the skin, Mean / drug flux across the skin, as tapentadol base, Mean: n=2; for cumulative, passive delivery across the skin, Mean / cumulative, passive delivery across the skin, as tapentadol base, Mean / drug flux across the skin, Mean / drug flux across the skin, as tapentadol base, Mean / drug flux across the skin / cumulative, passive delivery across the skin: patch area 0.64 cm^2; for drug flux across the skin, Mean / drug flux across the skin, as tapentadol base, Mean / drug flux across the skin: passive, no current; for drug flux across the skin / cumulative, passive delivery across the skin: single cells 1-2
Protocol: For comparison, the rate of transdermal delivery of Tapentadol hydrochloride for a period of 24 hours has been determined without any means of electric-field-assisted administration (passive control).
The flux of Tapentadol hydrochloride from passive diffusion alone was measured (n=2). The experimental set-up was exactly as previously described, except that no electrodes were placed in the diffusion cell and no current was applied. The temperature was held at 37° C. The receptor solution was sampled and assayed at 0.5, 1, 1.5, 2, 3, 4, 5, 6, 7, 8 and 24 hours. 1 ml of receptor solution was removed and replaced with fresh PBS at each sampling point.

Question: Which “cumulative, passive delivery across the skin, Mean” value (0.5 h) does the source give for CC[C@@H](c1cccc(O)c1)[C@@H](C)CN(C)C [Tapentadol hydrochloride] here?
Answer: The value was 0 µg.

Question: And the “cumulative, passive delivery across the skin, as tapentadol base, Mean” value (“cumulative … as tapentadol base, Mean” for short) (0.5 h)?
Answer: Its value is 0 µg.

Question: What about the “drug flux across the skin, Mean” value (0.5 h) of the same compound?
Answer: The value was 0 µg/h.

Question: What about the “drug flux across the skin, as tapentadol base, Mean” value (0.5 h) of the same compound?
Answer: Its value is 0 µg/h.

Question: What about the “drug flux across the skin” value (0.5 h) of the same compound?
Answer: Its value is 0 µg/h.

Question: And the “cumulative, passive delivery across the skin” value (0.5 h)?
Answer: The value was 0 µg.

Question: What about the “cumulative, passive delivery across the skin, Mean” value (1 h) of the same compound?
Answer: The value was 0 µg.

Question: And the “cumulative … as tapentadol base, Mean” value (1 h)?
Answer: The value was 0 µg.

Question: What about the “drug flux across the skin, Mean” value (1 h) of the same compound?
Answer: The value was 0 µg/h.

Question: And the “drug flux across the skin, as tapentadol base, Mean” value (1 h)?
Answer: The value was 0 µg/h.

Question: And the “drug flux across the skin” value (1 h)?
Answer: Its value is 0 µg/h.

Question: And the “cumulative, passive delivery across the skin” value (1 h)?
Answer: The value was 0 µg.

Question: What about the “cumulative, passive delivery across the skin, Mean” value (1.5 h) of the same compound?
Answer: Its value is 0 µg.

Question: What about the “cumulative … as tapentadol base, Mean” value (1.5 h) of the same compound?
Answer: Its value is 0 µg.

Question: What about the “drug flux across the skin, Mean” value (1.5 h) of the same compound?
Answer: The value was 0 µg/h.

Question: What about the “drug flux across the skin, as tapentadol base, Mean” value (1.5 h) of the same compound?
Answer: The value was 0 µg/h.

Question: And the “drug flux across the skin” value (1.5 h)?
Answer: The value was 0 µg/h.

Question: And the “cumulative, passive delivery across the skin” value (1.5 h)?
Answer: Its value is 0 µg.

Question: What about the “cumulative, passive delivery across the skin, Mean” value (2 h) of the same compound?
Answer: Its value is 0 µg.

Question: What about the “cumulative … as tapentadol base, Mean” value (2 h) of the same compound?
Answer: The value was 0 µg.

Question: And the “drug flux across the skin, Mean” value (2 h)?
Answer: The value was 0 µg/h.

Question: What about the “drug flux across the skin, as tapentadol base, Mean” value (2 h) of the same compound?
Answer: Its value is 0 µg/h.

Question: And the “drug flux across the skin” value (2 h)?
Answer: Its value is 0 µg/h.

Question: What about the “cumulative, passive delivery across the skin” value (2 h) of the same compound?
Answer: Its value is 0 µg.

Question: What about the “cumulative, passive delivery across the skin, Mean” value (3 h) of the same compound?
Answer: The value was 2 µg.

Question: And the “cumulative … as tapentadol base, Mean” value (3 h)?
Answer: The value was 1 µg.

Question: What about the “drug flux across the skin, Mean” value (3 h) of the same compound?
Answer: Its value is 1 µg/h.

Question: And the “drug flux across the skin, as tapentadol base, Mean” value (3 h)?
Answer: Its value is 1 µg/h.

Question: What about the “drug flux across the skin” value (3 h) of the same compound?
Answer: The value was 1 µg/h.

Question: And the “cumulative, passive delivery across the skin” value (3 h, listed as Tapentadol HCl, hydrochloride)?
Answer: Its value is 2 µg and 1 µg.

Question: And the “cumulative, passive delivery across the skin, Mean” value (4 h)?
Answer: Its value is 4 µg.

Question: And the “cumulative … as tapentadol base, Mean” value (4 h)?
Answer: Its value is 3 µg.

Question: What about the “drug flux across the skin, Mean” value (4 h) of the same compound?
Answer: Its value is 2 µg/h.

Question: What about the “drug flux across the skin, as tapentadol base, Mean” value (4 h) of the same compound?
Answer: The value was 2 µg/h.

Question: And the “drug flux across the skin” value (4 h)?
Answer: The value was 2 µg/h.

Question: What about the “cumulative, passive delivery across the skin” value (4 h, listed as Tapentadol HCl, hydrochloride) of the same compound?
Answer: The value was 4 µg and 3 µg.

Question: What about the “cumulative, passive delivery across the skin, Mean” value (5 h) of the same compound?
Answer: The value was 6 µg.

Question: What about the “cumulative … as tapentadol base, Mean” value (5 h) of the same compound?
Answer: The value was 5 µg.

Question: And the “drug flux across the skin, Mean” value (5 h)?
Answer: Its value is 3 µg/h.

Question: And the “drug flux across the skin, as tapentadol base, Mean” value (5 h)?
Answer: Its value is 2 µg/h.

Question: And the “drug flux across the skin” value (5 h, hydrochloride)?
Answer: The value was 3 µg/h and 2 µg/h.

Question: What about the “cumulative, passive delivery across the skin” value (5 h, listed as Tapentadol HCl, hydrochloride) of the same compound?
Answer: The value was 7 µg and 5 µg.

Question: And the “cumulative, passive delivery across the skin, Mean” value (6 h)?
Answer: Its value is 9 µg.

Question: And the “cumulative … as tapentadol base, Mean” value (6 h)?
Answer: The value was 8 µg.

Question: What about the “drug flux across the skin, Mean” value (6 h) of the same compound?
Answer: The value was 3 µg/h.

Question: What about the “drug flux across the skin, as tapentadol base, Mean” value (6 h) of the same compound?
Answer: Its value is 3 µg/h.

Question: And the “drug flux across the skin” value (6 h, hydrochloride)?
Answer: Its value is 4 µg/h and 3 µg/h.

Question: And the “cumulative, passive delivery across the skin” value (6 h, listed as Tapentadol HCl, hydrochloride)?
Answer: The value was 11 µg and 8 µg.

Question: And the “cumulative, passive delivery across the skin, Mean” value (7 h)?
Answer: Its value is 13 µg.

Question: What about the “cumulative … as tapentadol base, Mean” value (7 h) of the same compound?
Answer: The value was 11 µg.

Question: What about the “drug flux across the skin, Mean” value (7 h) of the same compound?
Answer: Its value is 3 µg/h.

Question: What about the “drug flux across the skin, as tapentadol base, Mean” value (7 h) of the same compound?
Answer: The value was 3 µg/h.

Question: What about the “drug flux across the skin” value (7 h, hydrochloride) of the same compound?
Answer: The value was 4 µg/h and 3 µg/h.

Question: And the “cumulative, passive delivery across the skin” value (7 h, listed as Tapentadol HCl, hydrochloride)?
Answer: The value was 14 µg and 11 µg.

Question: And the “cumulative, passive delivery across the skin, Mean” value (8 h)?
Answer: Its value is 18 µg.

Question: And the “cumulative … as tapentadol base, Mean” value (8 h)?
Answer: The value was 15 µg.

Question: And the “drug flux across the skin, Mean” value (8 h)?
Answer: The value was 5 µg/h.

Question: And the “drug flux across the skin, as tapentadol base, Mean” value (8 h)?
Answer: The value was 4 µg/h.

Question: And the “drug flux across the skin” value (8 h, hydrochloride)?
Answer: The value was 5 µg/h and 4 µg/h.

Question: And the “cumulative, passive delivery across the skin” value (8 h, listed as Tapentadol HCl, hydrochloride)?
Answer: Its value is 20 µg and 15 µg.

Question: What about the “cumulative, passive delivery across the skin, Mean” value (24 h) of the same compound?
Answer: The value was 186 µg.

Question: What about the “cumulative … as tapentadol base, Mean” value (24 h) of the same compound?
Answer: Its value is 159 µg.

Question: What about the “drug flux across the skin, Mean” value (24 h) of the same compound?
Answer: Its value is 11 µg/h.

Question: And the “drug flux across the skin, as tapentadol base, Mean” value (24 h)?
Answer: Its value is 9 µg/h.

Question: And the “drug flux across the skin” value (24 h, hydrochloride)?
Answer: Its value is 11 µg/h and 10 µg/h.

Question: What about the “cumulative, passive delivery across the skin” value (24 h, listed as Tapentadol HCl, hydrochloride) of the same compound?
Answer: Its value is 192 µg and 179 µg.

Question: And the “rate of passive diffusion” value (by 24 hours)?
Answer: Its value is 16 μg/h/cm2.

Question: And the “time within which steady state flux was not reached” value (comparative example 1b, passive diffusion)?
Answer: The value was > 8 h.
